From US11293001B2, “Microfluidic cell culture systems” (9493662 Canada Inc., priority 2013, dated 2022)

What was measured:
[1] = test system: hippocampal and DRG axons; experiment: Axonal elastic modulus by AFM nano-indentation (modified Hertz model); assay type: cell-based, rat
Description: (§1) To minimize remodeling and maintain the parallel organization of the axons in the cultures, DRG neurons were cultured at a density four-times lower than hippocampal neurons and were tested within 7-10 days in culture, whereas hippocampal axons were tested after 14-18 days in culture.
Simultaneous compression and live imaging of single axons were performed on a Bioscope AFM mounted on an inverted optical microscope using a 100× objective (1.45 NA) and 1K charge-coupled device camera. Two different compression experiments were performed. In the first, a 20-mm polystyrene bead was fixed, see Reference [8], to the tip of silicon nitride probes with a nominal spring constant of k=0.01 N/m and used to compress axons with controlled force ranging from 0.1 nN≤F≤4 nN for different time periods. In the second, tipless n-type silicon probes with nominal spring constant of k=0.03 N/m were used to apply constant force to axons. […]
Modeling the underlying glass plane as a sphere with an infinite radius, then the term accounting for the deformation induced by the plane is negligible. Using the method of Reference [13] the δBead-Cylinder can be calculated using Equation (2) where γ is the Poisson ratio of the axon or the bead, E is the Young's modulus of the material, F is the total force applied, e is the eccentricity of the ellipse of contact, and K and

[2] = test system: DRG axons
[3] = test system: hippocampal axons
[4] = test system: DRG and hippocampal axons; experiment: Immunocytochemistry: distribution of cytosolic components in axons with impaired transport; assay type: cell-based, rat
Description: as §1
Immunocytochemistry was performed as described in Reference [8] with mouse anti-tubulin, rabbit anti neurofilament, rabbit polyclonal anti-Tom20 (mitochondrial preprotein translocases of the outer membrane FL-145); and Alexa Fluor™ 488 conjugated phalloidin. The secondary antibodies used were Rhodamine Red antimouse IgG and Alexa Fluor™ 647 anti-rabbit IgG. Samples were imaged using a laser scanning confocal microscope with a 60× PlanApo oilimmersion objective on an inverted microscope.
To investigate the reason for the higher resistance of DRG axons to compression and to vinblastine effects, the inventors investigated the composition and distribution of cytosolic components in axons with impaired transport. […] The inventors analyzed the distribution of mitochondria, actin, neurofilament, and tubulin after blockade of axonal transport.

[5] = increasing vinblastine concentration
[6] = 1 hour treatment, FIG. 4C insert
[7] = increasing vinblastine concentrations, 1 hour
[8] = vinblastine 5 nM or 500 nM for 1 hour, fixed, AFM

vinblastine sulfate salt
average elastic modulus at 30% of indentation (EM30%) ([1]; 5 nM vinblastine, p<0.001): significantly decreased
slope of the elastic modulus curve as a function of percentage indentation [1, 5]: decreased proportionally with increasing vinblastine concentration
vinblastine concentration at which the volume of the non-FAS segment decreased [2, 6]: 500 nM
volume of single FAS [2, 7]: increased with increasing vinblastine concentrations
number and size of FAS (focal axonal swelling) [2, 8]: increased with increasing vinblastine concentrations
vinblastine concentration at which the volume of the non-FAS segment decreased [3, 6]: 5 nM
volume of single FAS [3, 7]: did not significantly change
number and size of FAS (focal axonal swelling) [3, 8]: increased with increasing vinblastine concentrations
tubulin and neurofilament aggregation at FAS [4, 5]: proportional increase
distribution of actin ([4]; vinblastine-treated axons): concentrated between FAS
distribution of mitochondria ([4]; vinblastine-treated axons): changed from uniform to a discontinuous punctate pattern
neurofilaments and microtubules ([4]; vinblastine-treated axons): collapsed and accumulated at FAS
